Patent US9439854B2, “Liquid pharmaceutical formulations of palonosetron” (Helsinn Healthcare SA, priority 2003, dated 2016)

How the values were obtained:
5-HT3 receptor = target: T1, 5-HT3 receptor (Homo sapiens, UniProt P46098); details: clinical investigations; cited from earlier work
T1 sequence (P46098 24-478): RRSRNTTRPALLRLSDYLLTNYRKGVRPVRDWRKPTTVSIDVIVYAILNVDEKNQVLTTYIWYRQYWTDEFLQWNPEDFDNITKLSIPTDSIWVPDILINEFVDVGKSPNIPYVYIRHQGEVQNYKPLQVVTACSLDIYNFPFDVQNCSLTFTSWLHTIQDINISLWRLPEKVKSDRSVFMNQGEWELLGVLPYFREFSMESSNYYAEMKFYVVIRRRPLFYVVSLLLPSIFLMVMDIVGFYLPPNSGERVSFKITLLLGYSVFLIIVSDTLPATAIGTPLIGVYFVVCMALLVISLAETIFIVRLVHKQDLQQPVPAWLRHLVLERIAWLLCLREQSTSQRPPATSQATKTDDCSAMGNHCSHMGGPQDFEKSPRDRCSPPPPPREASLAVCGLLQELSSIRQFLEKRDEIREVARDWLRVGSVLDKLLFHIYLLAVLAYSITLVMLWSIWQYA

[1] = clinical investigations; cited from earlier work
[2] = effect of pH on stability of formulations containing palonosetron hydrochloride at 80° C.; format: physicochemical; details: pH 2.0, 5.0, 7.4 and 10.0 tested
Protocol: A study was conducted to determine the effect of pH on formulations containing palonosetron hydrochloride, measuring the stability at 80° C. at pH 2.0, 5.0, 7.4, and 10.0.

[3] = formulation optimization study (concentration ranges, 24 lots); format: physicochemical; details: 0.05 mg/mL to 5.0 mg/mL; citrate buffer 0 to 80 mM; EDTA 0 to 0.10%
Protocol: A formulation optimization study was performed using an experimental design software. Twenty-four lots of drug product were analyzed to investigate the appropriate concentration ranges for palonosetron hydrochloride (0.05 mg/mL to 5.0 mg/mL), citrate buffer (0 to 80 mM) and EDTA (0 to 0.10%).

[4] = physical and chemical stability of palonosetron HCl in infusion solutions (without dexamethasone); format: physicochemical; details: 5 and 30 μg/mL in 4 infusion solutions, PVC bags; 14 days at 4° C. in the dark, 48 hours at 23° C. under fluorescent light
Protocol: The physical and chemical stability of palonosetron HCl was studies in concentrations of 5 μg/mL and 30 μg/mL in 5% dextrose injection, 0.9% sodium chloride injection, 5% dextrose in 0.45% sodium chloride injection, and dextrose 5% in lactated Ringer's injection. The admixtures were evaluated over 14 days at 4° C. in the dark and for 48 hours at 23° C. under fluorescent light. Test samples of palonosetron HCl were prepared in polyvinyl chloride (PVC) bags of the infusion solutions at concentrations of 5 and 30 μg/mL. Evaluations for physical and chemical stability were performed on samples taken initially and after 1, 3, 5, 7, and 14 days of storage at 4° C. and after 1, 4, 24, and 48 hours at 23° C. Physical stability was assessed using visual observation in normal room light and using a high-intensity monodirectional light beam. In addition, turbidity and particle content were measured electronically. Chemical stability of the drug was evaluated by using a stability-indicating high performance liquid chromatographic (HPLC) analytical technique.

[5] = physical and chemical stability of palonosetron HCl admixed with dexamethasone; format: physicochemical; details: palonosetron HCl 5 or 25 μg/mL with dexamethasone 0.2, 0.4 or 0.33 mg/mL in 5% dextrose or 0.9% sodium chloride; 14 days at 4° C., 48 hours at 23° C.
Protocol: The physical and chemical stability of palonosetron HCl 0.25 mg admixed with dexamethasone (as sodium phosphate) 10 mg or 20 mg in 5% dextrose injection or 0.9% sodium chloride injection in polyvinyl chloride (PVC) minibags, and also admixed with dexamethasone (as sodium phosphate) 3.3 mg in 5% dextrose injection or 0.9% sodium chloride injection in polypropylene syringes at 4° C. in the dark for 14 days and at 23° C. exposed to normal laboratory fluorescent light over 48 hours, was studied. Test samples of palonosetron HCl 5 μg/mL with dexamethasone (as sodium phosphate) 0.2 mg/mL and also 0.4 mg/mL were prepared in polyvinyl chloride (PVC) minibags of each infusion solution. Additionally, palonosetron HCl 25 μg/mL with dexamethasone (as sodium phosphate) 0.33 mg/mL in each infusion solution were prepared as 10 mL of test solution in 20-mL polypropylene syringes. […] Physical stability was assessed using visual observation in normal room light and using a high-intensity monodirectional light beam. In addition, turbidity and particle content were measured electronically. Chemical stability of the drug was evaluated by using a stability-indicating high performance liquid chromatographic (HPLC) analytical technique.

## O=C1c2cccc3c2[C@H](CCC3)CN1[C@@H]1CN2CCC1CC2 [palonosetron, (3aS)-2,3,3a,4,5,6-Hexahydro-2-[(S)-1-Azabicyclo[2.2.2]oct-3-yl]2,3,3a,4,5,6-hexahydro-1-oxo-1Hbenz[de]isoquinoline]
5-HT3 receptor
  potency relative to most existing 5-HT3 receptor antagonists: an order of magnitude more potent than most existing 5-HT3 receptor antagonists
  reduction of delayed-onset nausea induced by chemotherapeutic agents: effective to reduce delayed-onset nausea
[1]
  half-life: about 40 hours

## Cl.O=C1c2cccc3c2[C@H](CCC3)CN1[C@@H]1CN2CCC1CC2 [palonosetron hydrochloride]
[2]
  pH of greatest stability: most stable at pH 5.0
[3]
  chemical stability as a function of palonosetron concentration: greatest stability seen at the lowest palonosetron concentrations
[4]
  chemical stability (loss of drug, HPLC): little or no loss
  physical stability (visual, turbidity, particle content): physically stable throughout the study
[5]
  physical compatibility (visual, turbidity, particle content): physically compatible throughout the study

## C[C@@H]1C[C@H]2[C@@H]3CCC4=CC(=O)C=C[C@]4(C)[C@@]3(F)[C@@H](O)C[C@]2(C)[C@@]1(O)C(=O)CO [dexamethasone]
[5]
  chemical stability (loss of drug, HPLC): little or no loss
